Several values for one entry are separate records, joined by “and”; a condition that tells them apart may be missing. Identical values can stand only once. Counter-ions that a name gives are not always drawn. Like-named read-outs stand apart in the source and are kept apart here.
Legend:
[1] = tested on: TNF-alpha; experiment: Microglial TNF-alpha secretion, LPS stimulated; format: cell-based; details: for TNFa: percentage of TNFa vs LPS stimulated controls, Table 2; for TNF-a.: Table 3, microglial inflammation, presented for comparison
Procedure: The efficacy of these compounds to reduce toxicity are assessed, as reflected by age-dependent paralysis, in an Abeta transgenic C. elegans model of Alzheimer's Disease. Because microglial inflammation, especially the cytokine TNF-alpha, are implicated in driving the pathophysiology of Alzheimer's Disease, […], was also assessed.

[2] = tested on: microglial cells; experiment: MTT viability of microglial cells (microglial toxicity); format: cell-based
[3] = tested on: Abeta transgenic C. elegans; experiment: Paralysis in Abeta transgenic C. elegans (Abeta toxicity); format: in vivo; details: for paralysis: Table 3, Abeta toxicity in C. elegans, one to six unexplained values per cell
[4] = tested on: C. elegans; experiment: Lifespan in C. elegans; format: in vivo
[5] = tested on: SARS-CoV-2; experiment: microbe, parasite or virus in culture; format: cell-based
[6] = tested on: Vero cells; experiment: Viability of Vero cells (CC50); format: cell-based; details: concentration that reduces viability of Vero cells
[7] = tested on: mouse model of intracerebral hemorrhage; experiment: Mouse model of intracerebral hemorrhage, motor and cognitive function; format: in vivo; details: for cognitive function: alternation in a Y-maze; for cognitive function / motor function: compared to DMSO, normalized to pre-ICH function; for motor function: rotarod
Procedure: FIG. 1. […] Motor function was assessed using rotarod and cognitive was assessed by alternation in a Y-maze. All data were normalized to data pre-ICH function.
Motor function was assessed using rotarod and cognitive was assessed by alternation in a Y-maze. All data were normalized to data pre-ICH function.

[8] = Viability of Vero cells (CC50); format: cell-based; details: African green monkey; concentration that reduces viability of Vero cells
[9] = Plasma and brain concentrations after IV or oral administration in mice; format: in vivo; details: male C57BL/6 mice
Procedure: FIG. 2. Plasma and brain concentrations of TC084-110 over 8 h following a single IV injection (A) at 1 mg/kg or oral administration (B) at 10 mg/kg in male C57BL/6 mice. […] Plasma and brain concentrations at each time point represent the mean+/−SD from 3 mice.

[10] = tested on: Abeta transgenic C. elegans; details: Zhang, Poplawski et al. 2009; cited from earlier work
[11] = tested on: mouse double-transgenic (A-beta/presenilin) model of AD; details: treatment between 14 and 15 months; Govindarajan et al. 2011; cited from earlier work
[12] = percentage of MTT viability compared to unstimulated DMSO control cells, Table 2
[13] = Table 3, microglial toxicity, presented for comparison
[14] = Table 3, net protective effects in C. elegans, class letter
[15] = concentration that inhibits replication of SARS-CoV-2 in Vero cells by 50%, read-out: IC50
[16] = Severe acute respiratory syndrome coronavirus 2, concentration that inhibits replication of SARS-CoV-2 in Vero cells by 50%, read-out: IC50

| Compound | TNFa [1] | MTT [2, 12] | lifespan in C. elegans [4] | Lifespan ([4]; Table 2, class letters I, D, N) | further results |
| --- | --- | --- | --- | --- | --- |
| COc1ccc2c(c1)N(CCC1CCCCN1C(C)=O)c1ccccc1S2 (centres unmarked) [TC96-32, 1-(2-(2-(2-methoxy-10H-phenothiazin-10-yl)ethyl)piperidin-1-yl)ethan-1-one] | 78.98% | 106.92% |  |  |  |
| Chlorprothixene [reference compound] |  |  |  |  | TNF-a. [1]: 69.84%; MTT [2, 13]: 122.40%; paralysis [3]: 64.31% and 47.65%; Lifespan [4, 14]: I 0.0493; IC50 [5, 15]: 1000 nM; CC50 [6]: 3.5 µM; cognitive function [7]: preserve; motor function [7]: preserve |
| Cc1cc2c(cc1C)N(CCCN(C)C)c1ccccc1S2 [TC84-124, 3-(2,3-dimethyl-10H-phenothiazin-10-yl)-N,N-dimethylpropan-1-amine] | 56.73% | 82.48% | increased lifespan | I | microglial TNF-alpha secretion [1]: significantly reduced; TNF-a. [1]: 56.73%; MTT [2, 13]: 82.48%; Abeta toxicity [3]: reduced Abeta toxicity; Lifespan [4, 14]: I; SARS-CoV-2 replication [5]: reduced SARS-CoV-2 replication; IC50 [5, 16]: 1700 nM; CC50 [8]: 6.5 µM |
| CN1CCCCC1CCN1c2ccccc2Sc2ccc(F)cc21 (centres unmarked) [TC84-110, 2-fluoro-10-(2-(1-methylpiperidin-2-yl)ethyl)-10H-phenothiazine] | 58.49% | 91.99% | increased lifespan | I | microglial TNF-alpha secretion [1]: significantly reduced; TNF-a. [1]: 58.49%; MTT [2, 13]: 91.99%; Abeta toxicity [3]: reduced Abeta toxicity; Lifespan [4, 14]: I; SARS-CoV-2 replication [5]: reduced SARS-CoV-2 replication; IC50 [5, 16]: 1200 nM; CC50 [8]: 8.1 µM; protection to maintain open field behavior and cognitive impairments ([7]; administered after the lesion was produced): significantly protective; cognitive function [7]: preserve; off-target effects such as sedation ([7]; mouse): no discernable off-target effects; motor function [7]: preserve; oral availability ([9]; oral administration at 10 mg/kg): orally available; brain/plasma ratio ([9]; single IV 1 mg/kg or oral 10 mg/kg, over 8 h): very high |
| CC(=O)N1c2ccccc2[S+]([O-])c2ccc(Cl)cc21 (centres unmarked) [TC84-39, 1-(2-chloro-5-oxido-10H-phenothiazin-10-yl)ethan-1-one] | 90.88% | 134.67% | increased lifespan | I |  |
| Chlorpromazine [reference compound] |  |  |  |  | TNF-a. [1]: 63.83%; MTT [2, 13]: 79.38%; paralysis [3]: 0%; Lifespan [4, 14]: I; IC50 [5, 15]: 4400 nM; CC50 [6]: 6.7 µM |
| CN(C)CCCN1c2ccccc2Sc2ccc(C(F)(F)F)cc21 [Triflupromazine Hydrochloride] |  |  |  |  | CC50 [8]: 7 µM |
| COc1ccc2c(c1)N(C(C)=O)c1ccccc1[S+]2[O-] (centres unmarked) [TC84-37, 1-(2-methoxy-5-oxido-10H-phenothiazin-10-yl)ethan-1-one] | 90.49% | 140.38% |  |  |  |
| COc1ccc2c(c1)N(CCCN(C)C(C)=O)c1ccccc1S2 [TC84-163, N-(3-(2-methoxy-10H-phenothiazin-10-yl)propyl)-N-methylacetamide] | 99.98% | 108.79% | increased lifespan | I |  |
| CC(=O)N1c2ccccc2[S+]([O-])c2ccc(C(F)(F)F)cc21 (centres unmarked) [TC84-38, 1-(5-oxido-2-(trifluoromethyl)-10H-phenothiazin-10-yl)ethan-1-one] | 97.23% | 149.90% | increased lifespan | I |  |
| Cc1ccc2c(c1)N(CCC1CCCCN1C)c1cc(C(F)(F)F)ccc1S2 (centres unmarked) [TC96-20, 2-methyl-10-(2-(1-methylpiperidin-2-yl)ethyl)-8-(trifluoromethyl)-10H-phenothiazine] | 49.67% | 51.90% |  |  | microglial TNF-alpha secretion [1]: significantly reduced; Abeta toxicity [3]: reduced Abeta toxicity |
| CCC(CC)COC(=O)[C@H](C)N[P@](=O)(OC[C@H]1O[C@@](C#N)(c2ccc3c(N)ncnn23)[C@H](O)[C@@H]1O)Oc1ccccc1 [Remdesivir, reference compound] |  |  |  |  | IC50 ([5]; Severe acute respiratory syndrome coronavirus 2, Vero): 1200 nM; CC50 [8]: > 20 µM |
| Cc1cc2c(cc1C)N(CCC1CCCCN1C)c1ccccc1S2 (centres unmarked) [TC84-125, 2,3-dimethyl-10-(2-(1-methylpiperidin-2-yl)ethyl)-10H-phenothiazine] | 41.37% | 42.77% | increased lifespan | I | microglial TNF-alpha secretion [1]: significantly reduced; Abeta toxicity [3]: reduced Abeta toxicity |
| CC(=O)c1ccc2c(c1)N(C(C)=O)c1ccccc1S2 [TC84-13, 1,1′-(10H-phenothiazine-2,10-diyl)bis(ethan-1-one)] | 95.36% | 154.03% | increased lifespan | I |  |
| CCCC(=O)[O-].[Na+] [sodium butyrate] |  |  |  |  | Abeta toxicity in vivo in a C. elegans model of AD [10]: significantly reduces Abeta toxicity; A-beta plaques [11]: no changes in A-beta plaques; acetylation of H3K14, H4K5, and H4K16 [11]: reduced acetylation; cognitive impairments [11]: reversed cognitive impairments |
| CN1CCCCC1CCN1c2ccccc2Sc2cc(C(F)(F)F)ccc21 (centres unmarked) [TC84-144, 10-(2-(1-methylpiperidin-2-yl)ethyl)-3-(trifluoromethyl)-10H-phenothiazine] | 45.34% | 41.27% | increased lifespan | I |  |
| COc1ccc2c(c1)N(C(C)=O)c1ccccc1S2 [TC84-31, 1-(2-methoxy-10H-phenothiazin-10-yl)ethan-1-one] | 92.28% | 153.72% |  |  |  |
| CC(=O)c1ccc2c(c1)N(CCCN(C)C(C)=O)c1ccccc1S2 [TC84-161, N-(3-(2-acetyl-10H-phenothiazin-10-yl)propyl)-N-methylacetamide] | 89.27% | 106.15% | increased lifespan | I |  |
| CC(=O)c1ccc2c(c1)N(C(C)=O)c1ccccc1[S+]2[O-] (centres unmarked) [TC84-20, 1,1′-(5-oxido-10H-phenothiazine-2,10-diyl)bis(ethan-1-one)] | 95.41% | 158.76% | increased lifespan | I |  |
| CC(=O)N1c2ccccc2Sc2ccc(C(F)(F)F)cc21 [TC84-32, 1-(2-(trifluoromethyl)-10H-phenothiazin-10-yl)ethan-1-one] | 90.74% | 141.59% |  |  |  |
| CC(=O)N(C)CCCN1c2ccccc2Sc2ccc(C(F)(F)F)cc21 [TC84-162, N-methyl-N-(3-(2-(trifluoromethyl)-10H-phenothiazin-10-yl)propyl)acetamide] | 94.58% | 121.08% |  |  | microglial TNF-alpha secretion [1]: significantly reduced; Abeta toxicity [3]: reduced Abeta toxicity |
